From ChEMBL document CHEMBL4813981, “Synthesis and in vitro antibacterial activity of new aminothiazole-oximepiperidone cephalosporins” (2021)
Values after ≈ are worked out from the molar mass of the structure shown.

Key:
Type in all cases: functional
Acinetobacter baumannii [1] = experiment: Antibacterial activity against Carbapenem- resistant Acinetobacter baumannii 17-5 assessed as reduction in bacterial growth
Acinetobacter baumannii [2] = experiment: Antibacterial activity against Carbapenem- resistant Acinetobacter baumannii 17-2 assessed as reduction in bacterial growth
Pseudomonas aeruginosa [3] = experiment: Antibacterial activity against Pseudomonas aeruginosa ATCC 27853 assessed as reduction in bacterial growth
Klebsiella pneumoniae [4] = experiment: Antibacterial activity against Carbapenem- sensitive Klebsiella pneumoniae 17-12 overexpressing extended spectrum beta-lactamases assessed as reduction in bacterial growth
Klebsiella pneumoniae [5] = experiment: Antibacterial activity against Carbapenem- sensitive Klebsiella pneumoniae 17-7 overexpressing extended spectrum beta-lactamases assessed as reduction in bacterial growth
Klebsiella pneumoniae [6] = experiment: Antibacterial activity against Carbapenem- sensitive Klebsiella pneumoniae 17-3 overexpressing extended spectrum beta-lactamases assessed as reduction in bacterial growth
Escherichia coli [7] = experiment: Antibacterial activity against ESBLs positive Carbapenem-sensitive Escherichia coli 17-14 assessed as reduction in bacterial growth
Klebsiella pneumoniae [8] = experiment: Antibacterial activity against Carbapenem- sensitive Klebsiella pneumoniae 17-10 overexpressing extended spectrum beta-lactamases assessed as reduction in bacterial growth
Acinetobacter baumannii [9] = experiment: Antibacterial activity against Carbapenem- resistant Acinetobacter baumannii 17-6 assessed as reduction in bacterial growth
Klebsiella aerogenes [10] = experiment: Antibacterial activity against Enterobacter aerogenes 17-4 assessed as reduction in bacterial growth
Klebsiella pneumoniae [11] = experiment: Antibacterial activity against ESBLs negative Carbapenem-sensitive Klebsiella pneumoniae 17-16 assessed as reduction in bacterial growth
Escherichia coli [12] = experiment: Antibacterial activity against ESBLs positive Carbapenem-sensitive Escherichia coli 17-11 assessed as reduction in bacterial growth
Pseudomonas aeruginosa [13] = experiment: Antibacterial activity against Carbapenem- sensitive Pseudomonas aeruginosa 17-24 assessed as reduction in bacterial growth
Klebsiella pneumoniae [14] = experiment: Antibacterial activity against Carbapenem- sensitive Klebsiella pneumoniae 17-8 overexpressing extended spectrum beta-lactamases assessed as reduction in bacterial growth
Enterobacter cloacae [15] = experiment: Antibacterial activity against Enterobacter cloacae 17-4 assessed as reduction in bacterial growth
Pseudomonas aeruginosa [16] = experiment: Antibacterial activity against Carbapenem- sensitive Pseudomonas aeruginosa 17-26 assessed as reduction in bacterial growth
Klebsiella pneumoniae [17] = experiment: Antibacterial activity against Carbapenem- sensitive Klebsiella pneumoniae 17-15 overexpressing extended spectrum beta-lactamases assessed as reduction in bacterial growth
Klebsiella pneumoniae [18] = experiment: Antibacterial activity against Carbapenem- sensitive Klebsiella pneumoniae 17-2 overexpressing extended spectrum beta-lactamases assessed as reduction in bacterial growth
Klebsiella aerogenes [19] = experiment: Antibacterial activity against Enterobacter aerogenes 17-3 assessed as reduction in bacterial growth
Klebsiella pneumoniae [20] = experiment: Antibacterial activity against Carbapenem- resistant Klebsiella pneumoniae KR 15-9 assessed as reduction in bacterial growth
Klebsiella pneumoniae [21] = experiment: Antibacterial activity against Carbapenem- resistant Klebsiella pneumoniae KR 15-5 assessed as reduction in bacterial growth
Klebsiella pneumoniae [22] = experiment: Antibacterial activity against Carbapenem- sensitive Klebsiella pneumoniae 17-13 overexpressing extended spectrum beta-lactamases assessed as reduction in bacterial growth
Pseudomonas aeruginosa [23] = experiment: Antibacterial activity against Carbapenem- resistant Pseudomonas aeruginosa 17-8 assessed as reduction in bacterial growth
Klebsiella pneumoniae [24] = experiment: Antibacterial activity against Klebsiella pneumoniae ATCC BAA-1705 assessed as reduction in bacterial growth
Escherichia coli [25] = experiment: Antibacterial activity against ESBLs negative Carbapenem-sensitive Escherichia coli 17-1 assessed as reduction in bacterial growth
Pseudomonas aeruginosa [26] = experiment: Antibacterial activity against Carbapenem- resistant Pseudomonas aeruginosa 17-5 assessed as reduction in bacterial growth
Escherichia coli [27] = experiment: Antibacterial activity against ESBLs positive Carbapenem-sensitive Escherichia coli 17-12 assessed as reduction in bacterial growth
Klebsiella pneumoniae [28] = experiment: Antibacterial activity against Carbapenem- resistant Klebsiella pneumoniae KR 15-6 assessed as reduction in bacterial growth
Escherichia coli [29] = experiment: Antibacterial activity against ESBLs positive Carbapenem-sensitive Escherichia coli 17-15 assessed as reduction in bacterial growth
Klebsiella pneumoniae [30] = experiment: Antibacterial activity against Carbapenem- sensitive Klebsiella pneumoniae 17-4 overexpressing extended spectrum beta-lactamases assessed as reduction in bacterial growth
Acinetobacter baumannii [31] = experiment: Antibacterial activity against Carbapenem- resistant Acinetobacter baumannii 17-10 assessed as reduction in bacterial growth
Klebsiella pneumoniae [32] = experiment: Antibacterial activity against Carbapenem- resistant Klebsiella pneumoniae KR 15-11 assessed as reduction in bacterial growth
Escherichia coli [33] = experiment: Antibacterial activity against ESBLs negative Carbapenem-sensitive Escherichia coli 17-9 assessed as reduction in bacterial growth
Klebsiella aerogenes [34] = experiment: Antibacterial activity against Enterobacter aerogenes 15-5 assessed as reduction in bacterial growth
Escherichia coli [35] = experiment: Antibacterial activity against ESBLs positive Carbapenem-sensitive Escherichia coli 17-8 assessed as reduction in bacterial growth
Klebsiella pneumoniae [36] = experiment: Antibacterial activity against ESBLs negative Carbapenem-sensitive Klebsiella pneumoniae 17-17 assessed as reduction in bacterial growth
Klebsiella aerogenes [37] = experiment: Antibacterial activity against Enterobacter aerogenes 17-1 assessed as reduction in bacterial growth
Acinetobacter baumannii [38] = experiment: Antibacterial activity against Carbapenem- resistant Acinetobacter baumannii 17-9 assessed as reduction in bacterial growth
Pseudomonas aeruginosa [39] = experiment: Antibacterial activity against Carbapenem- resistant Pseudomonas aeruginosa 17-1 assessed as reduction in bacterial growth
Pseudomonas aeruginosa [40] = experiment: Antibacterial activity against Carbapenem- sensitive Pseudomonas aeruginosa 17-21 assessed as reduction in bacterial growth
Enterobacter cloacae [41] = experiment: Antibacterial activity against Enterobacter cloacae 17-1 assessed as reduction in bacterial growth
Acinetobacter baumannii [42] = experiment: Antibacterial activity against Acinetobacter baumannii NCTC 13304 assessed as reduction in bacterial growth
Acinetobacter baumannii [43] = experiment: Antibacterial activity against Carbapenem- resistant Acinetobacter baumannii 17-3 assessed as reduction in bacterial growth
Klebsiella pneumoniae [44] = experiment: Antibacterial activity against Carbapenem- resistant Klebsiella pneumoniae KR 15-13 assessed as reduction in bacterial growth
Enterobacter cloacae [45] = experiment: Antibacterial activity against Enterobacter cloacae 17-9 assessed as reduction in bacterial growth
Escherichia coli [46] = experiment: Antibacterial activity against ESBLs negative Carbapenem-sensitive Escherichia coli 17-16 assessed as reduction in bacterial growth
Enterobacter cloacae [47] = experiment: Antibacterial activity against Enterobacter cloacae 17-2 assessed as reduction in bacterial growth
Pseudomonas aeruginosa [48] = experiment: Antibacterial activity against Carbapenem- sensitive Pseudomonas aeruginosa 17-29 assessed as reduction in bacterial growth
Acinetobacter baumannii [49] = experiment: Antibacterial activity against Carbapenem- resistant Acinetobacter baumannii 17-13 assessed as reduction in bacterial growth
Escherichia coli [50] = experiment: Antibacterial activity against ESBLs positive Carbapenem-sensitive Escherichia coli 17-22 assessed as reduction in bacterial growth
Klebsiella pneumoniae [51] = experiment: Antibacterial activity against Carbapenem- sensitive Klebsiella pneumoniae 17-1 overexpressing extended spectrum beta-lactamases assessed as reduction in bacterial growth
Klebsiella aerogenes [52] = experiment: Antibacterial activity against Enterobacter aerogenes 17-5 assessed as reduction in bacterial growth
Klebsiella pneumoniae [53] = experiment: Antibacterial activity against Carbapenem- resistant Klebsiella pneumoniae KR 15-7 assessed as reduction in bacterial growth
Klebsiella pneumoniae [54] = experiment: Antibacterial activity against ESBLs negative Carbapenem-sensitive Klebsiella pneumoniae 17-20 assessed as reduction in bacterial growth

## CC(C)(O/N=C(\C(=O)N[C@@H]1C(=O)N2C(C(=O)[O-])=C(C[n+]3ccccc3)CS[C@H]12)c1csc(N)n1)C(=O)O [CEFTAZIDIME]
Acinetobacter baumannii [1]
  MIC: > 64 µg/mL
Acinetobacter baumannii [2]
  MIC: > 64 µg/mL
Pseudomonas aeruginosa [3]
  MIC: 1 µg/mL (≈ 1.83 µM)
Klebsiella pneumoniae [4]
  MIC: 4 µg/mL (≈ 7.32 µM)
Klebsiella pneumoniae [5]
  MIC: > 64 µg/mL
Klebsiella pneumoniae [6]
  MIC: > 64 µg/mL
Escherichia coli [7]
  MIC: 16 µg/mL (≈ 29.3 µM)
Klebsiella pneumoniae [8]
  MIC: 16 µg/mL (≈ 29.3 µM)
Acinetobacter baumannii [9]
  MIC: > 64 µg/mL
Klebsiella aerogenes [10]
  MIC: 8 µg/mL (≈ 14.6 µM)
Klebsiella pneumoniae [11]
  MIC: 2 µg/mL (≈ 3.66 µM)
Escherichia coli [12]
  MIC: 32 µg/mL (≈ 58.5 µM)
Pseudomonas aeruginosa [13]
  MIC: 2 µg/mL (≈ 3.66 µM)
Klebsiella pneumoniae [14]
  MIC: > 64 µg/mL
Enterobacter cloacae [15]
  MIC: 0.5 µg/mL (≈ 0.915 µM)
Pseudomonas aeruginosa [16]
  MIC: 1 µg/mL (≈ 1.83 µM)
Klebsiella pneumoniae [17]
  MIC: 32 µg/mL (≈ 58.5 µM)
Klebsiella pneumoniae [18]
  MIC: 2 µg/mL (≈ 3.66 µM)
Klebsiella aerogenes [19]
  MIC: 0.5 µg/mL (≈ 0.915 µM)
Klebsiella pneumoniae [20]
  MIC: 64 µg/mL (≈ 117 µM)
Klebsiella pneumoniae [21]
  MIC: > 64 µg/mL
Klebsiella pneumoniae [22]
  MIC: 4 µg/mL (≈ 7.32 µM)
Pseudomonas aeruginosa [23]
  MIC: 32 µg/mL (≈ 58.5 µM)
Klebsiella pneumoniae [24]
  MIC: 64 µg/mL (≈ 117 µM)
Escherichia coli [25]
  MIC: 64 µg/mL (≈ 117 µM)
Pseudomonas aeruginosa [26]
  MIC: 64 µg/mL (≈ 117 µM)
Escherichia coli [27]
  MIC: 8 µg/mL (≈ 14.6 µM)
Klebsiella pneumoniae [28]
  MIC: 32 µg/mL (≈ 58.5 µM)
Escherichia coli [29]
  MIC: 64 µg/mL (≈ 117 µM)
Klebsiella pneumoniae [30]
  MIC: > 64 µg/mL
Acinetobacter baumannii [31]
  MIC: 32 µg/mL (≈ 58.5 µM)
Klebsiella pneumoniae [32]
  MIC: > 64 µg/mL
Escherichia coli [33]
  MIC: 0.5 µg/mL (≈ 0.915 µM)
Klebsiella aerogenes [34]
  MIC: 16 µg/mL (≈ 29.3 µM)
Escherichia coli [35]
  MIC: 16 µg/mL (≈ 29.3 µM)
Klebsiella pneumoniae [36]
  MIC: 0.125 µg/mL (≈ 0.229 µM)
Klebsiella aerogenes [37]
  MIC: 8 µg/mL (≈ 14.6 µM)
Acinetobacter baumannii [38]
  MIC: > 64 µg/mL
Pseudomonas aeruginosa [39]
  MIC: 32 µg/mL (≈ 58.5 µM)
Pseudomonas aeruginosa [40]
  MIC: 4 µg/mL (≈ 7.32 µM)
Enterobacter cloacae [41]
  MIC: 0.5 µg/mL (≈ 0.915 µM)
Acinetobacter baumannii [42]
  MIC: 64 µg/mL (≈ 117 µM)
Acinetobacter baumannii [43]
  MIC: > 64 µg/mL
Klebsiella pneumoniae [44]
  MIC: 64 µg/mL (≈ 117 µM)
Enterobacter cloacae [45]
  MIC: 0.5 µg/mL (≈ 0.915 µM)
Escherichia coli [46]
  MIC: 0.5 µg/mL (≈ 0.915 µM)
Enterobacter cloacae [47]
  MIC: 64 µg/mL (≈ 117 µM)
Pseudomonas aeruginosa [48]
  MIC: 1 µg/mL (≈ 1.83 µM)
Acinetobacter baumannii [49]
  MIC: > 64 µg/mL
Escherichia coli [50]
  MIC: > 64 µg/mL
Klebsiella pneumoniae [51]
  MIC: 64 µg/mL (≈ 117 µM)
Klebsiella aerogenes [52]
  MIC: 16 µg/mL (≈ 29.3 µM)
Klebsiella pneumoniae [53]
  MIC: > 64 µg/mL
Klebsiella pneumoniae [54]
  MIC: 0.125 µg/mL (≈ 0.229 µM)
